Laboratory results taken from the Deep4Chem optical property database.
One block for each compound: values may come before it.

Assay: photoluminescence quantum yield (fraction); solvent given as SMILES
[1] = in c1cc(-n2c3ccccc3c3ccccc32)cc(-n2c3ccccc3c3ccccc32)c1
[2] = in O=P(c1ccccc1)(c1ccccc1)c1ccccc1Oc1ccccc1P(=O)(c1ccccc1)c1ccccc1
[3] = in c1ccc2c(c1)c1ccccc1n2-c1ccc(-c2ccc(-n3c4ccccc4c4ccccc43)cc2)cc1

SMILES: CCCCCCCCn1c(=O)c2cc3cc4cc5c(=O)n(CCCCCCCC)c(=O)c5cc4c(-c4ccc(N(c5ccccc5)c5ccccc5)cc4)c3cc2c1=O
photoluminescence quantum yield (in ClC(Cl)Cl): 0.04

SMILES: COc1ccc(C2=C3C=c4c(oc5cc6c(cc45)[C@H]4CC[C@]5(C)C(=O)CC[C@H]5[C@@H]4CC6)=[N+]3[B-](F)(F)n3c2cc2c4cc5c(cc4oc23)CC[C@@H]2[C@@H]5CC[C@]3(C)C(=O)CC[C@@H]23)cc1
photoluminescence quantum yield (in CCOC(C)=O): 0.61
photoluminescence quantum yield (in CCOCC): 0.88
photoluminescence quantum yield (in CO): 0.52

SMILES: F[B-]1(F)n2c(c3c(c2-c2ccccc2)C2C=CC3CC2)C(c2ccccc2)=C2C3=C(C(c4ccccc4)=[N+]21)C1C=CC3CC1 (stereo unspecified)
photoluminescence quantum yield (in ClCCl): 0.87

SMILES: COc1ccc(-c2nc3ccccc3nc2/C=C/N2CCCC2)s1
photoluminescence quantum yield (in C1CCCCC1): 0.072
photoluminescence quantum yield (in C1CCOC1): 0.155
photoluminescence quantum yield (in CC#N): 0.21
photoluminescence quantum yield (in CC(C)=O): 0.209
photoluminescence quantum yield (in CCO): 0.031
photoluminescence quantum yield (in CO): 0.009
photoluminescence quantum yield (in CS(C)=O): 0.184
photoluminescence quantum yield (in Cc1ccccc1): 0.095
photoluminescence quantum yield (in ClCCl): 0.19

SMILES: COc1cc(N(c2ccccc2)c2ccc(C=C(C#N)C#N)c(OC)c2)ccc1C=C(C#N)C#N
photoluminescence quantum yield (in C1COCCO1): 0.035
photoluminescence quantum yield (in CC#N): 0.008
photoluminescence quantum yield (in CC(C)=O): 0.017
photoluminescence quantum yield (in CCOC(C)=O): 0.085
photoluminescence quantum yield (in CN(C)C=O): 0.073
photoluminescence quantum yield (in CO): 0.039
photoluminescence quantum yield (in Cc1ccccc1): 0.032
photoluminescence quantum yield (in ClC(Cl)Cl): 0.076
photoluminescence quantum yield (in ClCCl): 0.072

SMILES: CC1(C)c2ccccc2N(c2ccc(S(=O)(=O)c3ccc(N4c5ccccc5C(C)(C)c5ccccc54)cc3)cc2)c2ccccc21
photoluminescence quantum yield (in C1COCCO1): 0.8
photoluminescence quantum yield (in CC(C)=O): 0.59
photoluminescence quantum yield (in Cc1ccccc1): 0.8
photoluminescence quantum yield (in ClC(Cl)Cl): 0.8
photoluminescence quantum yield [1]: 0.8

SMILES: CC[N+]1(CC)CN2C(=N1)C(C(=O)O)=Cc1c(OC)ccc(OC)c12
photoluminescence quantum yield (in O): 0.018

SMILES: CC(=O)c1c(N[C@H](C(=O)O)C(C)C)c2ccc(N(C)C)cc2oc1=O
photoluminescence quantum yield (in ClCCl): 0.004

SMILES: COc1ccc(-c2nnc(-c3cc(-c4nnc(-c5ccc(OC)cc5)o4)c(-n4c5ccccc5c5ccccc54)cc3-n3c4ccccc4c4ccccc43)o2)cc1
photoluminescence quantum yield (in Cc1ccccc1): 0.133
photoluminescence quantum yield [2]: 0.354

SMILES: O=C(/C=C(\O)c1ccc(N2c3ccccc3Oc3ccccc32)cc1)c1ccc(N2c3ccccc3Oc3ccccc32)cc1
photoluminescence quantum yield [3]: 0.68

SMILES: COc1ccc(/C=C/c2ccccc2)cc1OC
photoluminescence quantum yield (in C1CCCCC1): 0.06
photoluminescence quantum yield (in CC#N): 0.035
photoluminescence quantum yield (in CC(C)O): 0.041
photoluminescence quantum yield (in CCCCOCCCC): 0.05
photoluminescence quantum yield (in CCOC(C)=O): 0.046
photoluminescence quantum yield (in CCOCC): 0.051

SMILES: Clc1nc(Nc2ccccc2)nc(Nc2ccc3c4cccc5cccc(c6cccc2c63)c54)n1
photoluminescence quantum yield (in C1COCCO1): 0.53
photoluminescence quantum yield (in CC#N): 0.45
photoluminescence quantum yield (in CCCCOCCCC): 0.49
photoluminescence quantum yield (in CCOC(C)=O): 0.43

SMILES: CC1(C)c2ccccc2-n2c(-c3ccc(N4c5ccccc5Oc5ccccc54)cc3)nc3cccc1c32
photoluminescence quantum yield (in Cc1ccccc1): 0.31
photoluminescence quantum yield [2]: 0.71

SMILES: O=C1/C(=C/C=C/c2cc3c4c(c2)CCCN4CCC3)CC/C1=C\C=C\c1cc2c3c(c1)CCCN3CCC2
photoluminescence quantum yield (in CC#N): 0.037
photoluminescence quantum yield (in CC(C)=O): 0.092
photoluminescence quantum yield (in CC(C)O): 0.07
photoluminescence quantum yield (in CCCCCC): 0.13
photoluminescence quantum yield (in CCCCO): 0.061
photoluminescence quantum yield (in CCCO): 0.042
photoluminescence quantum yield (in CCO): 0.026
photoluminescence quantum yield (in CCOC(C)=O): 0.1
photoluminescence quantum yield (in CCOCC): 0.26
photoluminescence quantum yield (in CN(C)C=O): 0.053
photoluminescence quantum yield (in CO): 0.026
photoluminescence quantum yield (in CS(C)=O): 0.062
photoluminescence quantum yield (in Cc1ccccc1): 0.3
photoluminescence quantum yield (in ClCCl): 0.15
photoluminescence quantum yield (in OCC(F)(F)F): 0.008
photoluminescence quantum yield (in S=C=S): 0.078
photoluminescence quantum yield (in c1ccccc1): 0.3
photoluminescence quantum yield (in c1ccncc1): 0.17

SMILES: Cc1ccc(-c2ccc(/C=C/c3cccn3C)cn2)nc1
photoluminescence quantum yield (in C1COCCO1): 0.25
photoluminescence quantum yield (in CC#N): 0.087
photoluminescence quantum yield (in CCCCCC): 0.36
photoluminescence quantum yield (in CCO): 0.2
photoluminescence quantum yield (in CN(C)C=O): 0.19
photoluminescence quantum yield (in CO): 0.18
photoluminescence quantum yield (in CS(C)=O): 0.19
photoluminescence quantum yield (in Cc1ccccc1): 0.25
photoluminescence quantum yield (in ClC(Cl)Cl): 0.25
photoluminescence quantum yield (in c1ccccc1): 0.25

SMILES: CC1(C)c2cccc(-c3nc(-c4ccccc4)nc(-c4ccccc4)n3)c2Oc2c(-n3c4ccccc4c4ccccc43)cccc21
photoluminescence quantum yield (in Cc1ccccc1): 0.059

SMILES: CC(C)(C)c1ccc(-c2cc3c4c(c2)CCc2cc(-c5ccc(C(C)(C)C)cc5)cc(c2-4)CC3)cc1
photoluminescence quantum yield (in C1CCCCC1): 0.61
photoluminescence quantum yield (in C1CCOC1): 0.68
photoluminescence quantum yield (in CC#N): 0.55
photoluminescence quantum yield (in CCCCCC): 0.52
photoluminescence quantum yield (in CCO): 0.48
photoluminescence quantum yield (in CN(C)C=O): 0.66
photoluminescence quantum yield (in CO): 0.39
photoluminescence quantum yield (in Cc1ccccc1): 1
photoluminescence quantum yield (in ClC(Cl)Cl): 0.53
photoluminescence quantum yield (in ClCCl): 1

SMILES: N#CC1=c2cc3c4c(c2Oc2c1cc1c5c2CCCN5CCC1)CCC[N+]=4CCC3
photoluminescence quantum yield (in CCO): 0.25

SMILES: CCCCC1(CCCC)c2cc(C#Cc3ccc(/C=C(\C)c4ccccc4)cc3)ccc2-c2ccc(C#Cc3ccc(/C=C(\C)c4ccccc4)cc3)cc21
photoluminescence quantum yield (in C1CCOC1): 0.586

SMILES: CC1(C)c2ccccc2N(c2ccc(C(=O)c3cc(C(=O)c4ccc(N5c6ccccc6C(C)(C)c6ccccc65)cc4)cc(C(=O)c4ccc(N5c6ccccc6C(C)(C)c6ccccc65)cc4)c3)cc2)c2ccccc21
photoluminescence quantum yield (in Cc1ccccc1): 0.189
photoluminescence quantum yield [3]: 0.856

SMILES: CCC1=C(C)C(=O)n2c1cc1c(C)c(CC(=O)O)c(C)n1c2=O
photoluminescence quantum yield (in CO): 0.91
photoluminescence quantum yield (in CS(C)=O): 1
photoluminescence quantum yield (in ClC(Cl)Cl): 0.96
photoluminescence quantum yield (in c1ccccc1): 0.88

SMILES: C(=C\c1cc2ccccc2c2ccccc12)/c1cc2ccccc2c2ccccc12
photoluminescence quantum yield (in C1CCOC1): 0.6

SMILES: COCCC1=Cc2nc1ccc1[nH]c(cc1CCOC)c1nc(ccc3[nH]c2cc3CCOC)C(CCOC)=C1
photoluminescence quantum yield (in Cc1ccccc1): 0.47

SMILES: CCCCc1cc2cccc[n+]2[b-]2ccc(-c3cc[b-]4c(c3)c(CCCC)cc3cccc[n+]43)cc21
photoluminescence quantum yield (in C1CCCCC1): 0.05

SMILES: CC(C)(C)C1=CC2=C3C(=CC=C4C=CC(c5cc6c7cc(-c8ccc9ccc%10cc(C(C)(C)C)cc%11ccc8c9c%10%11)ccc7c(-c7ccc8ccc9cc(C(C)(C)C)cc%10ccc7c8c9%10)cc6c6cc(-c7ccc8ccc9cc(C(C)(C)C)cc%10ccc7c8c9%10)ccc56)=C(C=C2)C43)C1 (stereo unspecified)
photoluminescence quantum yield (in ClCCl): 0.874

Next, values leading:

photoluminescence quantum yield (in ClCCl): 0.23
SMILES: CCN(CC)c1ccc2cc(-c3nc4cc(C(=O)Nc5ccccc5Cl)ccc4o3)c(=O)oc2c1

photoluminescence quantum yield (in ClCCl): 0.01
SMILES: Clc1ccc(/C=C/c2ccncn2)cc1

photoluminescence quantum yield (in ClCCl): 0.01
SMILES: CCC1=C(C)C2=C(/C=C/c3ccc(OC)cc3)c3c(C)c(CC)c(C)n3[B-](F)(F)[N+]2=C1C

photoluminescence quantum yield (in ClCCl): 0.35
SMILES: CCCCCCN1C(=O)c2cccc3c(-c4ccc(-c5cc(-c6ccccc6)n(-c6ccccc6)n5)s4)ccc(c23)C1=O

photoluminescence quantum yield (in C1CCCCC1): 0.717
photoluminescence quantum yield (in CCOC(C)=O): 0.233
photoluminescence quantum yield (in CN(C)C=O): 0.023
photoluminescence quantum yield (in CO): 0.002
photoluminescence quantum yield (in ClCCl): 0.325
SMILES: CCN(CC)c1ccc2c(c1)oc(=O)c1cc3cnn(-c4ccccc4)c3nc12

photoluminescence quantum yield (in CCO): 0.01
photoluminescence quantum yield (in ClC(Cl)Cl): 0.09
SMILES: CC[N+](CC)=c1ccc2c(-c3ccccc3C(=O)O)c3c(=O)oc4c5c6c(cc4c3oc-2c1)CCCN6CCC5

photoluminescence quantum yield (in CC#N): 0.1
photoluminescence quantum yield (in CCO): 0.04
photoluminescence quantum yield (in ClCCl): 0.13
photoluminescence quantum yield (in O): 0.006
SMILES: C=CCNc1ccc2ccc3oc4cc(=[N+]5CCCC5)ccc-4nc3c2c1

photoluminescence quantum yield (in C1COCCO1): 0.45
SMILES: COc1ccc(C2=C/C(=C\c3ccc(C#N)cc3)C(=O)O2)cc1OC

photoluminescence quantum yield (in CC#N): 0.3
SMILES: [NH3+]C1(c2ccc3cc(O)ccc3c2)C2CC3CC(C2)CC1C3 (stereo unspecified)

photoluminescence quantum yield (in ClC(Cl)Cl): 0.36
SMILES: CC(C)c1cccc(C(C)C)c1-n1c(=O)c2ccc3c4ccc5c(=O)n(-c6c(C(C)C)cccc6C(C)C)c(=O)c6cc7c(-c8ccccn8)nc8cc(c1=O)c2c3c8c7c4c56

photoluminescence quantum yield (in CCO): 0.86
SMILES: CC(C)(C)OC(=O)NC(C(=O)OCc1ccc2c3cccc4cccc(c5cccc1c52)c43)c1c[nH]c2ccccc12 (stereo unspecified)

photoluminescence quantum yield (in ClC(Cl)Cl): 0.15
SMILES: CCCCCCN1C(=O)c2cccc3c(-c4ccc(-c5ccc6c7c(cccc57)C(=O)N(CCCCCC)C6=O)s4)ccc(c23)C1=O

photoluminescence quantum yield (in CC#N): 0.7
SMILES: CC1=CC(C)=[N+]2C1=C(c1ccccc1)c1c(C)cc(/C=C/c3ccccc3)n1[B-]2(F)F

photoluminescence quantum yield (in CC#N): 0.17
SMILES: COc1ccc(-c2nc3c([nH]2)C2=CC(=O)S[C@]2(C)[C@@]2(C)SC(=O)C=C32)cc1

photoluminescence quantum yield (in CC#N): 0.05
photoluminescence quantum yield (in ClCCl): 0.98
SMILES: COC(=O)c1cc(=O)n(Cc2ccccc2)c2cc(-c3ccc(N(C)C)cc3)sc12

photoluminescence quantum yield (in ClCCl): 0.43
SMILES: Cc1ccc(O)c(-c2nc(C)c3n2CCCC3)c1

photoluminescence quantum yield (in CCCCC(CC)n1c2ccc(-n3c4ccccc4c4ccccc43)cc2c2cc(-n3c4ccccc4c4ccccc43)ccc21): 0.239
photoluminescence quantum yield [1]: 0.365
SMILES: CC1(C)c2ccccc2N(c2cccc(S(=O)(=O)c3cccc(N4c5ccccc5C(C)(C)c5ccccc54)c3)c2)c2ccccc21

photoluminescence quantum yield (in CN(C)C=O): 0.25
photoluminescence quantum yield (in CO): 0.008
photoluminescence quantum yield (in CS(C)=O): 0.008
photoluminescence quantum yield (in O): 0.005
SMILES: O=C1/C(=C2\Sc3ccc(S(=O)(=O)O)cc3C2=O)Sc2ccc(S(=O)(=O)O)cc21

photoluminescence quantum yield (in CC#N): 0.018
photoluminescence quantum yield (in ClCCl): 0.538
SMILES: Cc1cc(O)c(C(=O)/C=C/c2ccc(N(C)C)cc2)c(=O)o1

photoluminescence quantum yield (in ClC(Cl)Cl): 0.016
SMILES: CC(C)(C)c1ccc2oc3nc4oc5ccc(N6c7ccccc7Sc7ccccc76)cc5c4cc3c2c1

photoluminescence quantum yield (in ClCCl): 0.062
SMILES: COc1ccc(-c2cn3ccc[n+]3[n-]2)cc1

photoluminescence quantum yield (in CCO): 0.05
photoluminescence quantum yield (in ClCCl): 0.57
SMILES: N#Cc1ncc(-c2c3ccccc3c(-c3cnc(C#N)nc3)c3ccccc23)cn1

photoluminescence quantum yield (in CCCCCC): 0.96
photoluminescence quantum yield (in CO): 0.99
photoluminescence quantum yield (in ClCCl): 0.92
SMILES: CC1=CC(C)=[N+]2C1=Cc1c(C)cc(C)n1[B-]2(F)F
